Test results: ChEMBL document CHEMBL4732255, “Evaluation of the antiproliferative activity of 106 marine microbial metabolites against human lung cancer cells and potential antiproliferative mechanism of purpuride G” (Bioorg Med Chem Lett, 2021)
Calls of active or inactive are those of the source. The rule behind the calls is not given here.

What was measured:
BEAS-2B = assay: Cytotoxicity against human BEAS-2B cells assessed as reduction in cell viability incubated for 72 hrs by sulforhodamine B assay; assay type: cell-based
PC-9 [1] = assay: Cell cycle arrest in human PC-9 cells assessed as accumulation at G0/G1 phase at 5 uM measured after 48 hrs by propidium iodide staining based flow cytometry (reference value: 30.67 to 31.96%); assay type: functional
PC-9 [2] = assay: Cell cycle arrest in human PC-9 cells assessed as accumulation at S phase at 5 uM measured after 48 hrs by propidium iodide staining based flow cytometry (reference value: 52.95 to 53.28%); assay type: functional
PC-9 [3] = assay: Cell cycle arrest in human PC-9 cells assessed as accumulation at G2/M phase at 5 uM measured after 48 hrs by propidium iodide staining based flow cytometry (reference value: 15.09 to 16.04%); assay type: functional
NCI-H157 [4] = assay: Cell cycle arrest in human NCI-H157 cells assessed as accumulation at G0/G1 phase at 5 uM measured after 48 hrs by propidium iodide staining based flow cytometry (reference value: 56.53 to 56.73%); assay type: functional
NCI-H157 [5] = assay: Cell cycle arrest in human NCI-H157 cells assessed as accumulation at S phase at 5 uM measured after 48 hrs by propidium iodide staining based flow cytometry (reference value: 26.33 to 26.84%); assay type: functional
NCI-H157 [6] = assay: Cell cycle arrest in human NCI-H157 cells assessed as accumulation at G2/M phase at 5 uM measured after 48 hrs by propidium iodide staining based flow cytometry (reference value: 16.62 to 16.94%); assay type: functional
PC-9 [7] = assay: Induction of apoptosis in human PC-9 cells assessed as early apoptotic cells at 5 uM measured after 48 hrs by Annexin V-FITC/propidium iodide staining based flow cytometry (reference value: 2.55 to 2.8%); assay type: functional
PC-9 [8] = assay: Induction of apoptosis in human PC-9 cells assessed as late apoptotic cells at 5 uM measured after 48 hrs by Annexin V-FITC/propidium iodide staining based flow cytometry (reference value: 5.5 to 6.9%); assay type: functional
NCI-H157 [9] = assay: Induction of apoptosis in human NCI-H157 cells assessed as early apoptotic cells at 5 uM measured after 48 hrs by Annexin V-FITC/propidium iodide staining based flow cytometry (reference value: 1 to 1.1%); assay type: functional
NCI-H157 [10] = assay: Induction of apoptosis in human NCI-H157 cells assessed as late apoptotic cells at 5 uM measured after 48 hrs by Annexin V-FITC/propidium iodide staining based flow cytometry (reference value: 1.95 to 2.1%); assay type: functional
NCI-H157 [11] = assay: Antiproliferative activity against human NCI-H157 cells assessed as reduction in cell viability measured after 72 hrs by sulforhodamine B assay; assay type: functional, cell-based; conditions: NCI-H157, 72 h
A549 [12] = assay: Antiproliferative activity against human A549 cells assessed as reduction in cell viability measured after 72 hrs by sulforhodamine B assay; assay type: functional, cell-based; conditions: A549, 72 h
NCI-H1703 = assay: Antiproliferative activity against human NCI-H1703 cells assessed as reduction in cell viability incubated for 72 hrs by sulforhodamine B assay; assay type: functional, cell-based; conditions: NCI-H1703, 72 h
NCI-H1299 = assay: Antiproliferative activity against human NCI-H1299 cells assessed as reduction in cell viability incubated for 72 hrs by sulforhodamine B assay; assay type: functional, cell-based; conditions: NCI-H1299, 72 h
NCI-H460 = assay: Antiproliferative activity against human NCI-H460 cells assessed as reduction in cell viability incubated for 72 hrs by sulforhodamine B assay; assay type: functional, cell-based; conditions: NCI-H460, 72 h
PC-9 [13] = assay: Antiproliferative activity against human PC-9 cells assessed as reduction in cell viability incubated for 72 hrs by sulforhodamine B assay; assay type: functional, cell-based; conditions: PC-9, 72 h
U-87 MG = assay: Antiproliferative activity against human U-87MG cells assessed as reduction in cell viability incubated for 72 hrs by sulforhodamine B assay; assay type: functional, cell-based, U-87MG ATCC
U-251 = assay: Antiproliferative activity against human U-251 cells assessed as reduction in cell viability incubated for 72 hrs by sulforhodamine B assay; assay type: functional, cell-based; conditions: U-251, 72 h
PC-9 [14] = assay: Induction of apoptosis in human PC-9 cells assessed as viable cells at 5 uM measured after 48 hrs by Annexin V-FITC/propidium iodide staining based flow cytometry (reference value: 90.9%); assay type: functional; conditions: read-out: Activity
PC-9 [15] = assay: Induction of apoptosis in human PC-9 cells assessed as necrotic cells at 5 uM measured after 48 hrs by Annexin V-FITC/propidium iodide staining based flow cytometry (reference value: 0.8%); assay type: functional
NCI-H157 [16] = assay: Induction of apoptosis in human NCI-H157 cells assessed as viable cells at 5 uM measured after 48 hrs by Annexin V-FITC/propidium iodide staining based flow cytometry (reference value: 94.3%); assay type: functional; conditions: read-out: Activity
NCI-H157 [17] = assay: Induction of apoptosis in human NCI-H157 cells assessed as necrotic cells at 5 uM measured after 48 hrs by Annexin V-FITC/propidium iodide staining based flow cytometry (reference value: 2.5%); assay type: functional
PC-9 [18] = assay: Induction of apoptosis in human PC-9 cells assessed as downregulation of Bcl-2 protein expression at 2 to 5 uM incubated for 24 hrs by western blot analysis; assay type: functional, cell-based; conditions: dose 2-5 µM
PC-9 [19] = assay: Induction of apoptosis in human PC-9 cells assessed as upregulation of Bax protein expression at 2 to 5 uM incubated for 24 hrs by western blot analysis; assay type: functional, cell-based; conditions: dose 2-5 µM
PC-9 [20] = assay: Induction of apoptosis in human PC-9 cells assessed as induction of PARP cleavage at 2 to 5 uM incubated for 24 hrs by western blot analysis; assay type: functional, cell-based; conditions: dose 2-5 µM
NCI-H157 [21] = assay: Induction of apoptosis in human NCI-H157 cells assessed as downregulation of Bcl-2 protein expression at 2 to 5 uM incubated for 24 hrs by western blot analysis; assay type: functional, cell-based; conditions: dose 2-5 µM
NCI-H157 [22] = assay: Induction of apoptosis in human NCI-H157 cells assessed as upregulation of Bax protein expression at 2 to 5 uM incubated for 24 hrs by western blot analysis; assay type: functional, cell-based; conditions: dose 2-5 µM
NCI-H157 [23] = assay: Induction of apoptosis in human NCI-H157 cells assessed as induction of PARP cleavage at 2 to 5 uM incubated for 24 hrs by western blot analysis; assay type: functional, cell-based; conditions: dose 2-5 µM
PC-9 [24] = assay: Inhibition of glycolysis in human PC-9 cells assessed as reduction in extracellular glucose consumption at 5 uM incubated for 24 hrs; assay type: functional, cell-based
PC-9 [25] = assay: Inhibition of glycolysis in human PC-9 cells assessed as reduction in lactate release at 5 uM incubated for 24 hrs; assay type: functional, cell-based
NCI-H157 [26] = assay: Inhibition of glycolysis in human NCI-H157 cells assessed as reduction in extracellular glucose consumption at 5 uM incubated for 24 hrs; assay type: functional, cell-based
NCI-H157 [27] = assay: Inhibition of glycolysis in human NCI-H157 cells assessed as reduction in lactate release at 5 uM incubated for 24 hrs; assay type: functional, cell-based
PC-9 [28] = assay: Inhibition of glycolysis in human PC-9 cells assessed as downregulation of HK2 protein expression at 2 to 5 uM incubated for 24 hrs by western blot analysis; assay type: functional, cell-based; conditions: dose 2-5 µM
PC-9 [29] = assay: Inhibition of glycolysis in human PC-9 cells assessed as downregulation of PKM2 protein expression at 2 to 5 uM incubated for 24 hrs by western blot analysis; assay type: functional, cell-based; conditions: dose 2-5 µM
NCI-H157 [30] = assay: Inhibition of glycolysis in human NCI-H157 cells assessed as downregulation of HK2 protein expression at 2 to 5 uM incubated for 24 hrs by western blot analysis; assay type: functional, cell-based; conditions: dose 2-5 µM
NCI-H157 [31] = assay: Inhibition of glycolysis in human NCI-H157 cells assessed as downregulation of PKM2 protein expression at 2 to 5 uM incubated for 24 hrs by western blot analysis; assay type: functional, cell-based; conditions: dose 2-5 µM
A549 [32] = assay: Antiproliferative activity against human A549 cells assessed as cell viability at 50 uM measured after 72 hrs by sulforhodamine B assay; assay type: functional; conditions: read-out: Activity
NCI-H157 [33] = assay: Antiproliferative activity against human NCI-H157 cells assessed as cell viability at 50 uM measured after 72 hrs by sulforhodamine B assay; assay type: functional; conditions: read-out: Activity

CC1(C)CC[C@H](O)[C@@]2(C)[C@H]1CC=C1C(=O)OC[C@@]12O
IC50 (BEAS-2B): 6.3 µM
Activity (PC-9 [1]): 55.77%
Activity (PC-9 [2]): 22.97%
Activity (PC-9 [3]): 20.29%
Activity (NCI-H157 [4]): 47.83%
Activity (NCI-H157 [5]): 36.68%
Activity (NCI-H157 [6]): 15.21%
Activity (PC-9 [7]): 5.7%
Activity (PC-9 [8]): 32.1%
Activity (NCI-H157 [9]): 6.1%
Activity (NCI-H157 [10]): 18.15%
IC50 (NCI-H157 [11]): 2.9 µM
IC50 (A549 [12]): 3.3 µM
IC50 (NCI-H1703): 3.6 µM
IC50 (NCI-H1299): 2.7 µM
IC50 (NCI-H460): 2.3 µM
IC50 (PC-9 [13]): 2.1 µM
IC50 (U-87 MG): 10.4 µM
IC50 (U-251): 4.5 µM
viability at 5 µM (PC-9 [14]): 38.1%
Activity (PC-9 [15]): 23.4%
viability at 5 µM (NCI-H157 [16]): 70.7%
Activity (NCI-H157 [17]): 4.9%
Activity (PC-9 [18]): Active
Activity (PC-9 [19]): Active
Activity (PC-9 [20]): Active
Activity (NCI-H157 [21]): Active
Activity (NCI-H157 [22]): Active
Activity (NCI-H157 [23]): Active
inhibition (PC-9 [24]): Active
inhibition (PC-9 [25]): Active
inhibition (NCI-H157 [26]): Active
inhibition (NCI-H157 [27]): Active
inhibition (PC-9 [28]): Active
inhibition (PC-9 [29]): Active
inhibition (NCI-H157 [30]): Active
inhibition (NCI-H157 [31]): Active
viability at 50 µM (A549 [32]): < 50%
viability at 50 µM (NCI-H157 [33]): < 50%
